Active and inactive are the calls of the source. The rule behind the calls is not given here.
What was measured:
Assay type in all cases: functional, cell-based
[1] = molecular target: Adenosine receptor A2a (Homo sapiens, UniProt P29274); test: Antagonist activity at human Adenosine receptor A2a transfected in HEK293 cells co-expressing CRE-luciferase plasmid assessed as reduction in CRE promoter activity by measuring effective concentration incubated for 18 hrs by luciferase based CRE reporter assay
Chain of Adenosine receptor A2a (P29274 whole entry): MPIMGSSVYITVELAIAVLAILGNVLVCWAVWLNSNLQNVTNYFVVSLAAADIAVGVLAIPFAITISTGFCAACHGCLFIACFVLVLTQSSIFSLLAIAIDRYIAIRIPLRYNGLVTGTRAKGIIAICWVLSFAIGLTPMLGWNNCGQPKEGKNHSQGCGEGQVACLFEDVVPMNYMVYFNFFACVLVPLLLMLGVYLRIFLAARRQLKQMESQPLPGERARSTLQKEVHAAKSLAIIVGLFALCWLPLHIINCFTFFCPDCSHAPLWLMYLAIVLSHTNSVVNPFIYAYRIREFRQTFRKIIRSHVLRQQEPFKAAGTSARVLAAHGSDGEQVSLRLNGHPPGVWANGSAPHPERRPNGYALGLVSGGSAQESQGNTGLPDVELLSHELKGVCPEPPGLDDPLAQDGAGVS

[2] = system: LX-2; test: Antifibrotic activity against human LX-2 cells overexpressing human Adenosine receptor A2a assessed as downregulation of alpha-SMA expression at 10 uM incubated for 18 hrs by Western blotting analysis
[3] = system: LX-2; test: Antifibrotic activity against human LX-2 cells overexpressing human Adenosine receptor A2a assessed as downregulation of COL1A1 expression at 10 uM incubated for 18 hrs by Western blotting analysis
[4] = system: LX-2; test: Antifibrotic activity against human LX-2 cells overexpressing human Adenosine receptor A2a assessed as downregulation of fibronectin expression at 10 uM incubated for 18 hrs by Western blotting analysis
[5] = system: LX-2; test: Antifibrotic activity against human LX-2 cells overexpressing human Adenosine receptor A2a assessed as downregulation of PKA phosphorylation at Thr197 residue at 10 uM incubated for 18 hrs by Western blotting analysis

EC50 [1]	Compound	Activity [2]	Activity [3]	Activity [4]	Activity [5]
14.6 µM	CNc1nc(C#Cc2ccccc2)nc2c1ncn2Cc1ccccc1	Active	Active	Active	Active
–	CNc1nc(C#Cc2ccccc2)nc2c1ncn2Cc1cc(OC)c(OC)c(OC)c1	inactive	inactive	inactive	inactive

From ChEMBL document CHEMBL5614411, “Exploring novel A2AAR antagonists: Design, synthesis, and evaluation of 2,6,9-trisubstituted purine derivatives as promising antifibrotic agents” (Bioorg Med Chem, 2024)
